{"source": "patent US8435958B2", "about": "“Method for producing pectin hydrolysis products” (N.V. Nutricia, priority 2000, dated 2013)", "key": {"[1]": {"system": "Caco-2 cells", "from_the_text": "The test is based on the migration of cells through the pores of a nucleopore polycarbonate filter in a protein gel that contains several ECM proteins, such as, for example, type 1 and type III collagen, fibronectin, and laminin, to a nitrocellulose filter. […] As a control, the effect of glucose on the invasive capacity of Caco-2 cells was studied."}, "[2]": {"molecular_target": "T1, galectin-3 on Caco-2 colon cancer cells (Homo sapiens, UniProt P17931)", "T1 construct": "endogenous in cells; host or cells: Caco-2 human colon cancer cells", "T1 sequence (P17931 whole entry)": "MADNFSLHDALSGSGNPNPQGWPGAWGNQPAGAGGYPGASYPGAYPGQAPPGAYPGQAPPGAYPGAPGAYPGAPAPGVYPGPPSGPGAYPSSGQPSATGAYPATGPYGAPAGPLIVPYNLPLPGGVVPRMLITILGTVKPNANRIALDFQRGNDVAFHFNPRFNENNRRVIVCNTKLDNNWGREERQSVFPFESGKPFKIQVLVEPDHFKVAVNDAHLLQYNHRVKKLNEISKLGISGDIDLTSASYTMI", "assay": "Inhibition of anti-galectin-3 monoclonal antibody binding, immunofluorescence/flow cytometry", "method": "(§1) The expression of galectin-3 on colon cancer cells was determined with immunofluorescence/flow cytometry methods using an anti-galectin-3-specific monoclonal antibody (mouse-Ig) and a corresponding anti-mouse FITC-coupled secondary antibody."}, "[3]": {"molecular_target": "T2, galectin-3 on HT 29 colon cancer cells (Homo sapiens, UniProt P17931)", "T2 construct": "endogenous in cells; host or cells: HT-29 (HT 29) human colon cancer cells", "T2 sequence (P17931 whole entry)": "as above", "assay": "Inhibition of anti-galectin-3 monoclonal antibody binding, immunofluorescence/flow cytometry", "method": "as §1"}, "[4]": {"system": "HT-29", "assay": "Growth of colon cancer cell lines on extracellular matrix (ECM), living cell count by trypan blue", "type": "cell-based, human", "details": "for Reduction in Cell Growth: 48 hours", "method": "(§2) Human colon cancer cell lines HT-29 or Caco-2 were seeded with a cell density of 1×10^4 cells/ml in 15 mm Petri dishes and cultivated in medium RPMI 1640+10% fetal calf serum (FCS) (HT-29) or, respectively, in MEM+10% FCS (Caco-2) at 37° C. under an atmosphere containing 5% CO2. The cells were left to grow for 1 to 2 days until reaching confluence. The dishes were then washed once with PBS, then incubated with PBS and 0.5% Triton X-100 for 30 minutes at room temperature on an agitator, and then washed 3 times with PBS. The previously described cell lines then were again seeded on the dishes with the ECM layers prepared in this way. The influence of the pectin hydrolysate on cell growth was determined by counting the cells. For this, the cells were again removed after 48 hours with trypsine/EDTA solution in HBBS (10 min) and were washed in PBS solution. Then the number of living cells was determined by staining with trypan blue solution (650 mg trypan blue in 400 ml 0.9% NaCl, 1:1 (v/v)) in a Neubauer counting chamber. As a control, experiments were performed with glucose."}, "[5]": {"system": "Caco-2", "assay": "Growth of colon cancer cell lines on extracellular matrix (ECM), living cell count by trypan blue", "type": "cell-based, human", "details": "for Reduction in Cell Growth: 48 hours", "method": "as §2"}, "[6]": {"system": "E. coli", "details": "from EP 0 716 605 B1; cited from earlier work"}, "[7]": {"system": "E. coli", "assay": "Prevention of adhesion of pathogenic germs to human uroepithelial cells", "type": "cell-based", "details": "human uroepithelial cells pre-incubated 1, 2 or 3 hours, various concentrations", "method": "(§3) For this test, human uroepithelian cells obtained by centrifugation from morning urine as well as two strains of staphylococcus aureus and E. coli were used, each as a suspension with 10^9 germs/mL.\n(§4) Epithelial cells and germ suspension were incubated together at 37° C. for 30 minutes. The epithelial cells then were separated from the non-adherent germs by membrane filtration (8μ). The filters were washed several times, placed into normal saline, and the epithelial cells were suspended in it. After centrifugation of the suspension in saline, the pellet was applied to slides and stained according to May-Grünwald and Giemsa. The number of germs adhering to 50 epithelial cells were counted. This number represented the blank value. Epithelial cells to which no germ solution had been added were used as a control.\n(§5) In the main test, epithelial first were incubated with aqueous solutions of various concentrations consisting of pectin hydrolysis products produced according to the invention (according to Example 1) for 1, 2 or 3 hours. They were then combined with the germ suspension and treated further as described above. The measuring value was obtained by counting the germs adhering to 50 epithelial cells."}, "[8]": {"system": "staphylococcus aureus", "assay": "Prevention of adhesion of pathogenic germs to human uroepithelial cells", "type": "cell-based", "details": "human uroepithelial cells pre-incubated 1, 2 or 3 hours, various concentrations", "method": "as §3, §4, §5"}, "[9]": {"details": "Caco-2, in relation to the concentration used"}, "[10]": {"details": "HT 29, in relation to the concentration used"}}, "data": [{"smiles": "O=C[C@H](O)[C@@H](O)[C@H](O)[C@H](O)CO", "note": "[Glucose, glucose]", "values": [{"measurement": "reduction of the invasive capacity of Caco-2 cells (text summary of Table 2)", "setting": "[1]", "value": "only caused a slight reduction"}, {"measurement": "Reduction of Binding Monoclonal Anti-Galectin-3 Antibody", "setting": "[2]; Caco-2, concentration 0.01%", "value": 0}, {"measurement": "Reduction of Binding Monoclonal Anti-Galectin-3 Antibody", "setting": "[2]; Caco-2, concentration 0.1%", "value": 0}, {"measurement": "Reduction of Binding Monoclonal Anti-Galectin-3 Antibody", "setting": "[2]; Caco-2, concentration 1.0%", "value": 0}, {"measurement": "reduction of the binding of the monoclonal anti-galectin-3 antibody (Table 3)", "setting": "[2]; [9]", "value": "not at all or only slightly"}, {"measurement": "Reduction of Binding Monoclonal Anti-Galectin-3 Antibody", "setting": "[3]; HT 29, concentration 0.01%", "value": 0}, {"measurement": "Reduction of Binding Monoclonal Anti-Galectin-3 Antibody", "setting": "[3]; HT 29, concentration 0.1%", "value": 0}, {"measurement": "Reduction of Binding Monoclonal Anti-Galectin-3 Antibody", "setting": "[3]; HT 29, concentration 1.0%", "value": 2}, {"measurement": "reduction of the binding of the monoclonal anti-galectin-3 antibody (Table 3)", "setting": "[3]; [10]", "value": "not at all or only slightly"}, {"measurement": "Reduction in Cell Growth", "setting": "[4]; HT 29, concentration 0.01%", "value": 0, "unit": "%"}, {"measurement": "Reduction in Cell Growth", "setting": "[4]; HT 29, concentration 0.1%", "value": 1, "unit": "%"}, {"measurement": "Reduction in Cell Growth", "setting": "[4]; HT 29, concentration 1.0%", "value": 0, "unit": "%"}, {"measurement": "reduced cell growth (text summary of Table 1)", "setting": "[4]; [10]", "value": "no influence"}, {"measurement": "Reduction in Cell Growth", "setting": "[5]; Caco-2, concentration 0.01%", "value": 0, "unit": "%"}, {"measurement": "Reduction in Cell Growth", "setting": "[5]; Caco-2, concentration 0.1%", "value": 0, "unit": "%"}, {"measurement": "Reduction in Cell Growth", "setting": "[5]; Caco-2, concentration 1.0%", "value": 0, "unit": "%"}, {"measurement": "reduced cell growth (text summary of Table 1)", "setting": "[5]; [9]", "value": "no influence"}]}, {"smiles": "O=C(O)[C@H]1O[C@H](O[C@@H]2[C@H](O)[C@@H](O)[C@@H](O)O[C@@H]2C(=O)O)[C@H](O)[C@@H](O)[C@H]1O", "note": "[digalacturonide]", "values": [{"measurement": "blocking of the adhesion", "setting": "[6]", "value": "≤ 91.7", "unit": "%"}]}, {"smiles": "OC[C@H]1O[C@H](O[C@]2(CO)O[C@H](CO[C@H]3O[C@H](CO)[C@@H](O)[C@H](O)[C@H]3O)[C@@H](O)[C@@H]2O)[C@H](O)[C@@H](O)[C@@H]1O", "note": "[isomelezitose]", "values": [{"measurement": "blockage of germ adhesion to the epithelial cells", "setting": "[7]", "value": "No reduction"}, {"measurement": "blockage of germ adhesion to the epithelial cells", "setting": "[8]", "value": "No reduction"}]}, {"smiles": "O=C(O)[C@H]1OC(O)[C@H](O)[C@@H](O)[C@H]1O", "note": "(some centres unmarked) [monogalacturonic acid]", "values": [{"measurement": "blocking of the adhesion", "setting": "[6]", "value": "no blocking"}]}, {"smiles": "OC[C@H]1O[C@@](CO)(OC[C@@]2(OC[C@@]3(O[C@H]4O[C@H](CO)[C@@H](O)[C@H](O)[C@H]4O)O[C@H](CO)[C@@H](O)[C@@H]3O)O[C@H](CO)[C@@H](O)[C@@H]2O)[C@@H](O)[C@@H]1O", "note": "[nystose]", "values": [{"measurement": "blockage of germ adhesion to the epithelial cells", "setting": "[7]", "value": "No reduction"}, {"measurement": "blockage of germ adhesion to the epithelial cells", "setting": "[8]", "value": "No reduction"}]}, {"smiles": "OC[C@H]1O[C@H](OC[C@H]2O[C@H](O[C@]3(CO)O[C@H](CO)[C@@H](O)[C@@H]3O)[C@H](O)[C@@H](O)[C@@H]2O)[C@H](O)[C@@H](O)[C@H]1O", "note": "[raffinose]", "values": [{"measurement": "blockage of germ adhesion to the epithelial cells", "setting": "[7]", "value": "No reduction"}, {"measurement": "blockage of germ adhesion to the epithelial cells", "setting": "[8]", "value": "No reduction"}]}, {"smiles": "O=C(O)[C@H]1O[C@H](O[C@@H]2[C@H](O)[C@@H](O)[C@@H](O[C@@H]3[C@H](O)[C@@H](O)C(O)O[C@@H]3C(=O)O)O[C@@H]2C(=O)O)[C@H](O)[C@@H](O)[C@H]1O", "note": "(some centres unmarked) [trigalacturonide]", "values": [{"measurement": "blocking of the adhesion", "setting": "[6]", "value": "≤ 84.6", "unit": "%"}]}]}
